The source of these data is patent US20230416258A1, “BENZ[…], AND PREPARATION METHOD THEREFOR AND USE THEREOF” (CHINA PHARMACEUTICAL UNIVERSITY, priority 2020, published 2023).

The first assay deals with KM mice. In words: Test for drug-induced disappearance of righting reflex in mice. To be noted: 15 mg/kg, single rapid bolus via tail vein. Format: in vivo. An excerpt: In anesthetic drug experiments, latency generally refers to the time from the start of administration to the loss of consciousness of the subject. The shorter latency is preferred, indicating a rapid onset of action after administration. The duration of anesthesia generally refers to the duration of time from the loss of consciousness to the restoration of consciousness of the subject. The duration of the drug will vary from animal model to animal species. Too long anesthesia may produce adverse cardiovascular and respiratory responses, such as adverse neurological effects to the subject, including sleepiness and dizziness; meanwhile, too short duration of anesthesia may affect the anesthesia effect, causing problems such as increase of anesthesia dosage during the operation.
KM mice (female, 18-25 g) were randomly grouped and subjected to a single administration by rapid bolus via the tail vein. The latency and duration of disappearance of righting reflex in the mice were recorded.
Take `COC(=O)CC[C@@H]1N=C(c2ccccc2Cl)c2cc(Cl)ccc2-n2c(SCc3ccncc3)nnc21` [Compound 124, methyl (S)-3-(8-chloro-6-(2-chlorophenyl)-1-(2-((pyridin-4-yl)methyl)thio)-4H-benzo[f][1,2,4]triazolo[4,3-a][1,4]diazepin-4-yl)propionate]: the Duration stood at 7.67 min and the Latency is on record as 0.18 min.

Still in this assay, the particulars now being: 30 mg/kg, single rapid bolus via tail vein.
`COC(=O)CC[C@@H]1N=C(c2ccccc2F)c2cc([N+](=O)[O-])ccc2-n2c(SCN3CCN(c4ccccc4)CC3)nnc21` [Compound 74, methyl (S)-3-(8-nitro-6-(2-fluorophenyl)-1-(((4-phenylpiperazin-1-yl)methyl)thio)-4H-benzo[f][1,2,4]triazolo[4,3-a][1,4]diazepin-4-yl)propionate] displayed a Duration of 6.16 min and a Latency of 0.47 min.

On to `COC(=O)CC[C@@H]1N=C(c2ccccc2Cl)c2cc(Cl)ccc2-n2c(SCc3ccncc3)nnc21` [Compound 124, methyl (S)-3-(8-chloro-6-(2-chlorophenyl)-1-(2-((pyridin-4-yl)methyl)thio)-4H-benzo[f][1,2,4]triazolo[4,3-a][1,4]diazepin-4-yl)propionate], for which the Duration is 13.31 min and the Latency was determined as 0.23 min.

Compound `COC(=O)CC[C@@H]1N=C(c2ccccc2Cl)c2cc(Cl)ccc2-n2c1n[nH]c2=S` [Tautomer of compound 2, methyl (S)-3-(8-chloro-6-(2-chlorophenyl)-1-thio-2,4-dihydro-1H-benzo[f][1,2,4]triazolo[4,3-a][1,4]diazepin-4-yl)propionate] displayed a Duration of 10.35 min and a Latency of 1.10 min.

In turn, `COC(=O)CC[C@@H]1N=C(c2ccccc2F)c2cc(Br)ccc2-n2c(SCCN3CCN(C)CC3)nnc21` [Compound 61, methyl (S)-3-(8-bromo-6-(2-fluorophenyl)-1-((2-(4-methylpiperazin-1-yl)ethyl)thio)-4H-benzo[f][1,2,4]triazolo[4,3-a][1,4]diazepin-4-yl)propionate] came in with a Duration of 12.28 min and a Latency of 0.82 min.

The compound `CCN(C)C(=O)Sc1nnc2n1-c1ccc(Cl)cc1C(c1ccccc1Cl)=N[C@H]2CCC(=O)OC` [Compound 142, methyl (S)-3-(8-chloro-6-(2-chlorophenyl)-1-((ethyl(methyl)carbamoyl)thio)-4H-benzo[f][1,2,4]triazolo[4,3-a][1,4]diazepin-4-yl)propionate] showed a Duration of 10.35 min and a Latency of 0.21 min.

As to `COC(=O)CC[C@@H]1N=C(c2ccccc2Cl)c2cc(Cl)ccc2-n2c(SCCN3CCCCC3)nnc21` [Compound 122, methyl (S)-3-(8-chloro-6-(2-chlorophenyl)-1-(2-((piperidin-1-yl)ethyl)thio)-4H-benzo[f][1,2,4]triazolo[4,3-a][1,4]diazepin-4-yl)propionate], the Duration is on record as 28.06 min and the Latency was 0.30 min.

Regarding “methyl (S)-3-(8-chloro-6-(2-chlorophenyl)-1-(2-((4-methylpiperidin-2-carbonyl)ethyl)thio)-4H-benzo[f][1,2,4]triazolo[4,3-a][1,4]diazepin-4-yl)propionate [Compound 136]”, the Duration is given as 17.5 min and the Latency turned out to be 0.36 min.

The compound `CCCSc1nnc2n1-c1ccc([N+](=O)[O-])cc1C(c1ccccc1Cl)=N[C@H]2CCC(=O)OC` [Compound 31, methyl (S)-3-(8-nitro-6-(2-chlorophenyl)-1-(propylthio)-4H-benzo[f][1,2,4]triazolo[4,3-a][1,4]diazepin-4-yl)propionate] had a Duration of 8.98 min and a Latency of 2.85 min.

`COC(=O)CC[C@@H]1N=C(c2ccccc2Cl)c2cc([N+](=O)[O-])ccc2-n2c(SC3CCN(C)CC3)nnc21` [Compound 95, methyl (S)-3-(8-nitro-6-(2-chlorophenyl)-1-((1-methylpiperidin-4-yl)thio)-4H-benzo[f][1,2,4]triazolo[4,3-a][1,4]diazepin-4-yl)propionate] displayed a Duration of 12.41 min and a Latency of 0.82 min.

`COC(=O)CC[C@@H]1N=C(c2ccccc2Cl)c2cc(Cl)ccc2-n2c(SCCn3ccnc3)nnc21` [Compound 138, methyl (S)-3-(8-chloro-6-(2-chlorophenyl)-1-(2-((1H-imidazol-1-yl)ethyl)thio)-4H-benzo[f][1,2,4]triazolo[4,3-a][1,4]diazepin-4-yl)propionate]: the Duration is 6.94 min and the Latency was found to be 0.27 min.

With `COC(=O)CC[C@@H]1N=C(c2ccccc2F)c2cc(Cl)ccc2-n2c(SC3CCN(C)CC3)nnc21` [Compound 63, methyl (S)-3-(8-chloro-6-(2-fluorophenyl)-1-((1-methylpiperidin-4-yl)thio)-4H-benzo[f][1,2,4]triazolo[4,3-a][1,4]diazepin-4-yl)propionate], the Duration was determined as 15.25 min and the Latency was determined as 1.23 min.

For `CCCSc1nnc2n1-c1ccc([N+](=O)[O-])cc1C(c1ccccc1F)=N[C@H]2CCC(=O)OC` [Compound 16, methyl (S)-3-(8-nitro-6-(2-fluorophenyl)-1-(propylthio)-4H-benzo[f][1,2,4]triazolo[4,3-a][1,4]diazepin-4-yl)propionate], the Duration is given as 6.25 min and the Latency turned out to be 0.79 min.

In turn, `COC(=O)CC[C@@H]1N=C(c2ccccc2)c2cc(Cl)ccc2-n2c(S)nnc21` [Compound 7, methyl (S)-3-(8-chloro-6-phenyl-1-mercapto-4H-benzo[f][1,2,4]triazolo[4,3-a][1,4]diazepin-4-yl)propionate] showed a Duration of 12.26 min and a Latency of 1.14 min.

The compound `COC(=O)CC[C@@H]1N=C(c2ccccc2F)c2cc(Cl)ccc2-n2c(SCN3CCN(c4ccccc4)CC3)nnc21` [Compound 72, methyl (S)-3-(8-chloro-6-(2-fluorophenyl)-1-(((4-phenylpiperazin-1-yl)methyl)thio)-4H-benzo[f][1,2,4]triazolo[4,3-a][1,4]diazepin-4-yl)propionate] registered a Duration of 13.12 min and a Latency of 0.42 min.

As for `C#CCSc1nnc2n1-c1ccc(Cl)cc1C(c1ccccc1Cl)=N[C@H]2CCC(=O)OC` [Compound 78, methyl (S)-3-(8-chloro-6-(2-chlorophenyl)-1-(prop-2-yn-1-ylthio)-4H-benzo[f][1,2,4]triazolo[4,3-a][1,4]diazepin-4-yl)propionate], the Duration amounted to 12.67 min and the Latency was determined as 1.05 min.

Staying with this assay, now noted: 60 mg/kg, single rapid bolus via tail vein.
Regarding `C#CCSc1nnc2n1-c1ccc([N+](=O)[O-])cc1C(c1ccccc1Cl)=N[C@H]2CCC(=O)OC` [Compound 80, methyl (S)-3-(8-nitro-6-(2-chlorophenyl)-1-(prop-2-yn-1-ylthio)-4H-benzo[f][1,2,4]triazolo[4,3-a][1,4]diazepin-4-yl)propionate], the Duration was found to be 13.57 min and the Latency is given as 0.86 min.

On to `CCOC(=O)CC[C@@H]1N=C(c2ccccc2Cl)c2cc(Cl)ccc2-n2c(S)nnc21` [Compound 41, ethyl (S)-3-(8-chloro-6-(2-chlorophenyl)-1-mercapto-4H-benzo[f][1,2,4]triazolo[4,3-a][1,4]diazepin-4-yl)propionate], for which the Duration stood at 8.59 min and the Latency came to 0.40 min.

Take `CCCSc1nnc2n1-c1ccc([N+](=O)[O-])cc1C(c1ccccc1F)=N[C@H]2CCC(=O)OC` [Compound 16, methyl (S)-3-(8-nitro-6-(2-fluorophenyl)-1-(propylthio)-4H-benzo[f][1,2,4]triazolo[4,3-a][1,4]diazepin-4-yl)propionate]: the Duration turned out to be 6.6 min and the Latency was 0.28 min.

As to `COC(=O)CC[C@@H]1N=C(c2ccccc2F)c2cc(Cl)ccc2-n2c(SCN3CCN(c4ccccc4)CC3)nnc21` [Compound 72, methyl (S)-3-(8-chloro-6-(2-fluorophenyl)-1-(((4-phenylpiperazin-1-yl)methyl)thio)-4H-benzo[f][1,2,4]triazolo[4,3-a][1,4]diazepin-4-yl)propionate], the Duration worked out at 10.67 min and the Latency was 1.52 min.
